Experimental data reported in patent US20010046491A1, “Tumor radiosensitization with mutant thymidine kinase in combination with a prodrug” (priority 2000, published 2001).

Test system: rat RT2 glioma cells
Experiment: MTT growth/toxicity assay of adenovirus-infected RT2 cells exposed to GCV or ACV
Assay type: cell-based
Conditions: 1-100 microM; for effect of prodrug on cell growth/toxicity (MTT): control AdCMV (empty vector)-infected RT2 cells, 5 days
Description: FIG. 2. Mutant HSV-TK75 sensitizes rat RT2 glioma cells to GCV and ACV more efficiently than wild type HSV-TK. Rat RT2 cells were infected with AdCMV (empty vector), AdCMV-TK, or AdCMV-TK75. At 2 days postinfection, cells were trypsinized, serially diluted, seeded in microtiter plates, and exposed to various doses of ACV or GCV. After 5 days, the plates were processed for growth/toxicity by MTT assay. (Contessa et al., 1999). Values were normalized to values from cells that were infected but not treated with GCV or ACV.
RT2 cells (a rat glioma cell line derived from Fischer 344 rats (Wilfong et al. 1973) that form tumors with features typical of human glioblastoma (Mahaley et al, 1977) were cultured in Dulbecco's modified Eagle's medium with 10% fetal bovine serum supplemented with penicillin/strepto-mycin. (Brust et al., 2000). Infected cells were exposed to Zovirax/ACV (manufactured by Glaxo Wellcome, Chapel Hill, N.C.) or GCV (kindly provided by Syntex, Palo Alto, Calif.) added to the medium. Cells were irradiated in medium with a ^60Co γ irradiator (Picker Zonegard V4 M60; Picker Interational, Cleveland, Ohio) set at 1 Gy/minute. Cell viability was determined by the 3-(4,5-dimethylthiazol-2-yl)-2,5-[…] bromide (MTT) assay. (Contessa et al, 1999). Terminal deoxynucleotidyltransferase-mediated deoxyuridine triphosphate nick end labeling assays were carried out with an ApopTag Direct kit from Oncor (Gaithersburg, Md.), according to the manufacturer's instructions, to provide a measurement of apoptosis.
It was subsequently determined whether infection of RT2 cells with the adenovirus expressing mutant HSV-TK 75 was able to predispose RT2 cells to killing by GCV and ACV more efficiently than cells infected with virus expressing wild type HSV-TK. At 2 days postinfection, infected cells were exposed to increasing concentrations (1-100 microM) of either GCV or ACV. As a control, we used an adenovirus(AdCMV) carrying no transgene.

| Compound | effect of prodrug on cell growth/toxicity (MTT) | cell killing, comparison of prodrugs (AdCMV-TK-infected RT2 cells) |
| --- | --- | --- |
| Nc1nc2c(ncn2COCCO)c(=O)[nH]1 [ACV, acyclovir] | little to no effect |  |
| Nc1nc(O)c2ncn(COC(CO)CO)c2n1 [GCV, ganciclovir] | little to no effect | more effective than with ACV |
